Measured values from patent publication US10280163B2 (BeiGene, Ltd., priority 2015, dated 2019).
Read-outs that look alike come from different tables or passages of the source.

What was measured:
[1] = biological target: T1, Recombinant IDO1 (Homo sapiens, UniProt P14902); assay: IDO1 enzymatic assay; format: biochemical; conditions: 50 nM IDO1, 1.3 mM D-tryptophan, read-out: Enzyme IC50 (nM) IDO1
T1 construct: His tag (N); made in house; host or cells: E. coli
Protocol: Recombinant IDO1 was overexpressed and purified from E. coli cells with an N-terminal His tag. IDO1 enzymatic assay was carried out using a methodology similar to described in the literature (J. Biol. Chem. (1980), 255, 1339-1345.). The reaction mixture contains 50 nM IDO1, 1.3 mM D-tryptophan, 5 mM L-ascorbic acid, 6.25 μM methylene Blue, 0.4 mg/mL catalase and compound (or DMSO) in a buffer containing 50 mM potassium phosphate pH 7.5 and 0.1% BSA. After incubation at 24° C. for 1.5 hours, absorbance of the reaction mixture was continuously read at 321 nm to monitor the formation of N′-formylkynurenine by a FULOstar OMEGA plate reader (BMG LABTECH) for 1 hour. The enzymatic activity was determined by measuring the slope of the linear absorbance increase as a function of time. The IC50s are calculated based on remaining enzyme activity in the presence of increasing concentrations of compounds.

[2] = biological target: T2, cellular IDO1 in HeLa cells (Homo sapiens, UniProt P14902); assay: HeLa cell-based IDO1 Kyn (kynurenine) production assay; conditions: IFN-γ 100 ng/mL, 48 hours
T2 construct: endogenous in cells; host or cells: HeLa cells (American Type Tissue Culture Collection), induced with human recombinant IFN-γ
Protocol: HeLa Cell-Based IDO1 Kyn (Kynurenine) Production Assay:
The inhibitory activity of IDO1 inhibitors is determined by using a colorimetric reaction to measure Kyn generated from L-Trp (L-Tryptophon) oxidation by cellular IDO1 in HeLa cells after induction of IDO1 by IFN-γ.
Hela cells were obtained from the American Type Tissue Culture Collection and recovered in 10% FBS-containing phenol red-free DMEM medium supplemented with 0.4 mM L-Trp. Cells were plated onto a 96-well plate (100 μl/well) at 8000 cells per well. Human recombinant IFN-γ (8901SC, CST) was added to cells (final concentration 100 ng/mL) to stimulate endogenous IDO1. Compounds at different concentrations diluted in dimethylsulfoxide (DMSO) were added simultaneously with IFN-γ. Cells were kept at 37° C. in a humidified incubator supplied with 5% CO2. After 48 hours of incubation, 100 μl supernatant from each well was removed to a new plate. The protein in the medium was precipitated with the addition of 8 μl 6N trichloroacetic acid. The plate was incubated at 60° C. for 45 min and then centrifugation at 2500 rpm for 10 min to remove sediments. 80 μl supernatants were carefully removed to a new clean plate and added with an equal volume of 2% 4-(Dimethylamino) benzaldehyde (D2004, sigma) dissolved in glacial acetic acid. The absorbance at 480 nm wavelength derived from Kyn was measured using a FULOstar OMEGA plate reader (BMG LABTECH). The IC50 for each compound was derived from fitting the dose-response data to the four-parameter logistic model by using Graphpad Prism software.

[3] = Table 1, 5-substituted imidazo[1,5-a]pyridines
[4] = Table 2, 8-substituted imidazo[1,5-a]pyridines

T1 sequence (P14902 whole entry): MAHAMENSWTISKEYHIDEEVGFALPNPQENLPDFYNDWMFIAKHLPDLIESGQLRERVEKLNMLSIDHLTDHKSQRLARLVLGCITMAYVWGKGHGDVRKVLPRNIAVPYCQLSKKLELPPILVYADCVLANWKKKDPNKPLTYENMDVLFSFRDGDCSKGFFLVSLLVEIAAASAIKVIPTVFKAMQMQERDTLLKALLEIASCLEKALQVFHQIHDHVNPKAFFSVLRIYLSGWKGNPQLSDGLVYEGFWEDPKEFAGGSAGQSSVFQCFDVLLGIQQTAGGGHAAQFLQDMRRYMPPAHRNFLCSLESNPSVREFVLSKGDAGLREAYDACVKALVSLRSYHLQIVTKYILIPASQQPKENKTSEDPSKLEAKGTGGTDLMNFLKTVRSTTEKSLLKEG
T2 sequence (P14902 whole entry): as above

Row | SMILES | IC50 [1, 3] | EC50 [2, 3] | IC50 [1, 4] | EC50 [2, 4]
1 | O[C@H](c1c(C2CC2)ccc2cncn12)C1CC2CCC1C2 (stereo partly drawn) [Example A162a, (1S)-(bicyclo[2.2.1]heptan-2-yl)(6-cyclopropylimidazo[1,5-a]pyridin-5-yl)methanol] | 11 nM | 8.8 nM |  | 
2 | OC(c1c(C2CC2)ccn2cncc12)C1CC2CCC1C2 (centres unmarked) [Example B122, bicyclo[2.2.1]heptan-2-yl(7-cyclopropylimidazo[1,5-a]pyridin-8-yl)methanol] |  |  | 53 nM | 116 nM
3 | CC(C1CCCCC1)C(O)c1c(Cl)ccc2cncn12 (centres unmarked) [Example A121, 1-(6-chloroimidazo[1,5-a]pyridin-5-yl)-2-cyclohexylpropan-1-ol] | 29 nM | 1570 nM |  | 
4 | OC1CCC(C(O)c2c(C3CC3)ccc3cncn23)CC1 (single isomer, unassigned) [Example A142b] | 31 nM | 312 nM |  | 
5 | OC(c1c(C2CC2)ccn2cncc12)C1CC2CCC1CC2 (centres unmarked) [Example B124, Bicyclo[2.2.2]octan-2-yl(7-cyclopropylimidazo[1,5-a]pyridin-8-yl)methanol] |  |  | 440 nM | 376 nM
6 | OC(c1c(C2CCC2)ccn2cncc12)C1CCCCC1 (centres unmarked) [Example B114, (7-Cyclobutylimidazo[1,5-a]pyridin-8-yl)(cyclohexyl)methanol] |  |  | 630 nM | 3040 nM
7 | CC(C)c1ccn2cncc2c1C(O)[C@H]1CC[C@H](O)CC1 (single isomer, unassigned) [Example B121a, (trans)-4-(Hydroxy(7-isopropylimidazo[1,5-a]pyridin-8-yl)methyl) cyclohexan-1-ol] |  |  | 210 nM | 719 nM
8 | CC(C)(C)c1ccn2cncc2c1C(O)C1CCCCC1 (centres unmarked) [Example B113, (7-(tert-Butyl)imidazo[1,5-a]pyridin-8-yl)(cyclohexyl)methanol] |  |  | 1300 nM | 9340 nM
9 | OC(c1c([C@H]2C[C@@H]2F)ccn2cncc12)C1CCCCC1 (single isomer, unassigned) [Example B128c, Cyclohexyl(7-((trans)-2-fluorocyclopropyl)imidazo[1,5-a]pyridin-8-yl)methanol] |  |  | 110000 nM | > 10000 nM
10 | OC(c1c(C2CC2)ccn2cncc12)C1C=CCCC1 (centres unmarked) [Example B141, cyclohex-2-en-1-yl(7-cyclopropylimidazo[1,5-a]pyridin-8-yl)methanol] |  |  | 45 nM | 1700 nM
11 | OC(CCc1cccn2cncc12)C1CCCCC1 (centres unmarked) [Example B010, 1-Cyclohexyl-3-(imidazo[1,5-a]pyridin-8-yl)propan-1-ol] |  |  | 14000 nM | > 10000 nM
12 | OC(c1c(C2CC2)ccn2cncc12)[C@H]1CC[C@H](O)CC1 (single isomer, unassigned) [Example B119a, (trans)-4-((7-Cyclopropylimidazo[1,5-a]pyridin-8-yl)(hydroxy)methyl)cyclohexan-1-ol] |  |  | 280 nM | 1360 nM
13 | CC(C)c1ccn2cncc2c1C(O)C1CCCCC1 (single isomer, unassigned) [Example B106b] |  |  | 1800 nM | > 10000 nM
14 | OC(c1c(C2CC2)ccn2cncc12)C1CC2CC2C1 (centres unmarked) [Example B139, bicyclo[3.1.0]hexan-3-yl(7-cyclopropylimidazo[1,5-a]pyridin-8-yl)methanol] |  |  | 85 nM | 199 nM
15 | O[C@H](c1c(C2CC2)ccn2cncc12)[C@H]1C[C@H]2CC[C@@H]1C2 [Example B122a, (S)-((1R,2S,4S)-bicyclo[2.2.1]heptan-2-yl)(7-cyclopropylimidazo[1,5-a]pyridin-8-yl)methanol] |  |  | 58 nM | 33 nM
16 | OC(c1c(C2CC2)ccn2cncc12)[C@H]1CC[C@@H](O)CC1 (single isomer, unassigned) [Example B119c] |  |  | 7700 nM | > 10000 nM
17 | OC1CCCC(C(O)c2c(C3CC3)ccc3cncn23)C1 (racemic) [Example A164a, 3-((6-Cyclopropylimidazo[1,5-a]pyridin-5-yl)(hydroxy)methyl)cyclohexan-1-ol] | 71 nM | 598 nM |  | 

Row | SMILES | IC50 [1, 3] | EC50 [2, 3] | IC50 [1, 4] | EC50 [2, 4]
18 | OC(c1c(C2CC2)ccc2cncn12)C1CC1 (centres unmarked) [Example A137, cyclopropyl(6-cyclopropylimidazo[1,5-a]pyridin-5-yl)methanol] | 25 nM | 3760 nM |  | 
19 | OC(c1c(C2CC2)ccn2cncc12)C1C2CC3CC(C2)CC1C3 (centres unmarked) [Example B117, (Adamantan-2-yl)(7-cyclopropylimidazo[1,5-a]pyridin-8-yl)methanol] |  |  | 1100 nM | 401 nM
20 | O=C(O)c1cccc(C(O)c2c(C3CC3)ccc3cncn23)c1 (centres unmarked) [Example A159, 3-((6-cyclopropylimidazo[1,5-a]pyridin-5-yl)(hydroxy)methyl)benzoic acid] | 5500 nM | > 10000 nM |  | 
21 | OC(c1c(C2CC2)ccc2cncn12)C1CC2CCC1C2 (centres unmarked) [Example A162, (Bicyclo[2.2.1]heptan-2-yl)(6-cyclopropylimidazo[1,5-a]pyridin-5-yl)methanol] | 32 nM | 34 nM |  | 
22 | O=C(c1ccccc1)N1CCCC(C(O)c2c(C3CC3)ccn3cncc23)C1 (centres unmarked) [Example B134, (3-((7-Cyclopropylimidazo[1,5-a]pyridin-8-yl)(hydroxy)methyl)piperidin-1-yl)(phenyl) methanone] |  |  | 2000 nM | > 10000 nM
23 | OC(CC1CCCCC1)c1c([C@H]2C[C@H]2F)ccn2cncc12 (mixture of isomers) [Example B127b, 2-Cyclohexyl-1-(7-(cis-2-fluorocyclopropyl)imidazo[1,5-a]pyridin-8-yl)ethan-1-ol] |  |  | 93 nM | 1130 nM
24 | OC1CCC([C@@H](O)c2c(C3CC3)ccc3cncn23)CC1 (single isomer, unassigned) [Example A142d] | 9200 nM | > 10000 nM |  | 
25 | OC1CCC([C@@H](O)c2c(C3CC3)ccc3cncn23)CC1 (single isomer, unassigned) [Example A142c] | 2000 nM | > 10000 nM |  | 
26 | OC(CC12CC3CC(CC(C3)C1)C2)c1c(C2CC2)ccn2cncc12 (centres unmarked) [Example B118, 2-(Adamantan-1-yl)-1-(7-cyclopropylimidazo[1,5-a]pyridin-8-yl)ethan-1-ol] |  |  | 280 nM | 179 nM
27 | OC(c1ccc(F)cc1)c1cccc2cncn12 (centres unmarked) [Example A008, (4-fluorophenyl)(imidazo[1,5-a]pyridin-5-yl)methanol] | 2400 nM | > 10000 nM |  | 
28 | OC(CC1CCCCC1)c1c([C@H]2C[C@H]2F)ccn2cncc12 (relative stereo) [Example B127a, 2-Cyclohexyl-1-(7-(cis-2-fluorocyclopropyl)imidazo[1,5-a]pyridin-8-yl)ethan-1-ol] |  |  | 88 nM | 595 nM
29 | OC(c1c(C2CCCC2)ccc2cncn12)C1CCCCC1 (centres unmarked) [Example A158, cyclohexyl(6-cyclopentylimidazo[1,5-a]pyridin-5-yl)methanol] | 880 nM | 933 nM |  | 
30 | OC(CC1CCCCC1)c1ccc(Cl)c2cncn12 (centres unmarked) [Example A025, 1-(8-chloroimidazo[1,5-a]pyridin-5-yl)-2-cyclohexylethan-1-ol] | 2500 nM | > 10000 nM |  | 
31 | CC(C)c1ccn2cncc2c1C(O)C1CCC(O[Si](C)(C)C(C)(C)C)CC1 (centres unmarked) [Example B120, (4-((tert-Butyldimethylsilyl)oxy)cyclohexyl)(7-isopropylimidazo[1,5-a]pyridin-8-yl)methanol] |  |  | 790 nM | > 10000 nM
32 | OC1CC2CC1CC2C(O)c1c(C2CC2)ccn2cncc12 (centres unmarked) [Example B142, 5-((7-cyclopropylimidazo[1,5-a]pyridin-8-yl)(hydroxy)methyl)bicyclo[2.2.1]heptan-2-ol] |  |  | 1300 nM | 6320 nM
33 | CC(C)(C)C(O)c1cccc2cncn12 (centres unmarked) [Example A004, 1-(imidazo[1,5-a]pyridin-5-yl)-2,2-dimethylpropan-1-ol] | 360 nM | > 10000 nM |  | 
34 | O=C(O)C1CCCC(C(O)c2c(C3CC3)ccn3cncc23)C1 (centres unmarked) [Example B138, 3-((7-Cyclopropylimidazo[1,5-a]pyridin-8-yl)(hydroxy)methyl)cyclohexane-1-carboxylic acid] |  |  | 1000 nM | > 10000 nM
